Test results published in PubChem BioAssay (NCI).
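1) Cells in 96-well plates. 2) Compound, 48 h, 5 concentrations. 3) Linear interpolation between surrounding doses. 4) Unreached endpoint = highest concentration. TGI is the concentration that stops growth completely.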

Experiments:
Assay in all cases: NCI tumour cell line growth inhibition, 48 h
786-0 renal = test system: 786-0 renal
CCRF-CEM leukemia = test system: CCRF-CEM leukemia
COLO 205 colon = test system: COLO 205 colon
HL-60(TB) leukemia = test system: HL-60(TB) leukemia
IGROV1 ovarian = test system: IGROV1 ovarian
K-562 leukemia = test system: K-562 leukemia
LOX IMVI melanoma = test system: LOX IMVI melanoma
M14 melanoma = test system: M14 melanoma
MALME-3M melanoma = test system: MALME-3M melanoma
NCI-H23 lung = test system: NCI-H23 lung
NCI-H460 lung = test system: NCI-H460 lung
OVCAR-8 ovarian = test system: OVCAR-8 ovarian
RPMI-8226 leukemia = test system: RPMI-8226 leukemia
SF-295 CNS = test system: SF-295 CNS
SK-MEL-28 melanoma = test system: SK-MEL-28 melanoma
SN12C renal = test system: SN12C renal
T-47D breast = test system: T-47D breast
TK-10 renal = test system: TK-10 renal
U251 CNS = test system: U251 CNS

SMILES	TGI (786-0 renal) [µM]	TGI (CCRF-CEM leukemia) [µM]	TGI (COLO 205 colon) [µM]	TGI (HL-60(TB) leukemia) [µM]	TGI (IGROV1 ovarian) [µM]	TGI (K-562 leukemia) [µM]	TGI (LOX IMVI melanoma) [µM]	TGI (M14 melanoma) [µM]	TGI (MALME-3M melanoma) [µM]	TGI (NCI-H23 lung) [µM]	TGI (NCI-H460 lung) [µM]	TGI (OVCAR-8 ovarian) [µM]	TGI (RPMI-8226 leukemia) [µM]	TGI (SF-295 CNS) [µM]	TGI (SK-MEL-28 melanoma) [µM]	TGI (SN12C renal) [µM]	TGI (T-47D breast) [µM]	TGI (TK-10 renal) [µM]	TGI (U251 CNS) [µM]
C[C@H](CCC(=O)NCC(=O)O)[C@H]1CC[C@H]2[C@@H]3[C@H](O)C[C@@H]4C[C@H](O)CC[C@]4(C)[C@H]3CC[C@]12C	> 100	> 100	> 100	> 100	> 100	> 100	> 100	> 100	> 100	> 100	> 100	> 100	> 100	> 100	> 100	> 100	> 100	> 100	> 100
COc1ccccc1NC(=S)N/N=C/c1cccc(C)n1	96.9	> 100	> 100	> 29.8	> 95.8	> 100	> 100	9.43	> 81.2	> 100	> 85.5	> 52.3	> 100	> 100	> 100	> 93.8	> 100	> 100	> 87.1
CCCCC[C@H]1CCCCCCCCCC(=O)OC2C(O[C@@H]3OC(C)[C@H](OC(=O)[C@@H](C)CC)C(O[C@@H]4OC(C)[C@H](O)C(O)[C@@H]4O)[C@@H]3OC(=O)[C@H](C)CC)[C@H](OC3C(O)[C@@H](O)C(C)O[C@H]3O1)OC(CO)[C@H]2O (stereo partly specified)	31.7	32.5	25	35.9	31.8	32.9	31.4	32.3	28.8	34	32.5	35.5	30.5	32.7	30.9	31.3	33.3	34.3	32.1
COc1cc2c3c(cc(Cl)nc3c1OC)C(O)(CC(=O)c1ccccc1)C(=O)N2 (stereo unspecified)	22	12.5	52.4	3.68	27.4	16.7	20.6	30.5	4.04	36.9	43.1	32.1	> 26.3	32.8	33.5	19.3	> 100	32.1	32.7
